From paper PMC10648927, “Examining the activity of cefepime-taniborbactam against Burkholderia cepacia complex and Burkholderia gladioli isolated from cystic fibrosis patients in the United States” (Antimicrobial Agents and Chemotherapy, 2023)

Biological target: T1, PenA1 β-lactamase (class A carbapenemase) (Burkholderia multivorans, UniProt A0A0H3KN52)
T1 construct: gene ampC
Assay: steady-state β-lactamase inhibition kinetics (Ki app, k2/K, koff)
Type: biochemical
Conditions: read-out: Taniborbactam

T1 sequence (A0A0H3KN52 entry or part of it): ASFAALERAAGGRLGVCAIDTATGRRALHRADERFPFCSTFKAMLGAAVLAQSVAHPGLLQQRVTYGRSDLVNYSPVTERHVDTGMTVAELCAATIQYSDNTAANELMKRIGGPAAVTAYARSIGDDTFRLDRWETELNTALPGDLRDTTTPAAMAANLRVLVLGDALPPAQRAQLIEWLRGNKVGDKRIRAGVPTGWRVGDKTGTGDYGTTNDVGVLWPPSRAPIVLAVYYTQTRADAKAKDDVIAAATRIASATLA

- Ki: 400 ± 40 nM
Structure (SMILES): NCCN[C@H]1CC[C@H](CC(=O)N[C@H]2Cc3cccc(C(=O)O)c3OB2O)CC1 [taniborbactam]
